SMILES strings stand for the structures.

The target in one test is T1, endogenous CETP from serum (Homo sapiens, UniProt P11597).
T1 construct: yielding a concentration of approximately 15 nM endogenous CETP in the assay; from tissue; host or cells: human serum (95% of the assay volume)
T1 sequence (P11597 18-493): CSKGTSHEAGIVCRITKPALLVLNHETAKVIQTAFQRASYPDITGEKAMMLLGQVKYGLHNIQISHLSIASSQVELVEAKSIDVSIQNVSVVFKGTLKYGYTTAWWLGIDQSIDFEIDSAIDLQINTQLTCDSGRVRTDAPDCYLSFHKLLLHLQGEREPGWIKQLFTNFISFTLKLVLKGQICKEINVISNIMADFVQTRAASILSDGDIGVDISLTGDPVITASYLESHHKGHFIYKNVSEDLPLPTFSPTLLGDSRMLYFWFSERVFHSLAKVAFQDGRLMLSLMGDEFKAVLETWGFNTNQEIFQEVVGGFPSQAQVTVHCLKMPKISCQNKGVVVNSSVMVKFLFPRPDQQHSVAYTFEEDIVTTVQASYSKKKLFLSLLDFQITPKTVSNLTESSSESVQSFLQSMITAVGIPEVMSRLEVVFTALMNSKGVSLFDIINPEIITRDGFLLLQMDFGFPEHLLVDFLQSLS
Briefly: RTA assay in 95% human serum (95% RTA), CETP-catalyzed CE and TG transfer. It counts as biochemical. The conditions noted are these: 95% human serum, endogenous CETP; read-out: RTA (95% HS). The procedure: Reagents and sources are: [3H] cholesteryl oleate (GE #TRK.886), [3H] Triolein (Perkin-Elmer NET-431), Butylated hydroxyl toluene (Aldrich, #D4740-4), DOPC (Sigma, #P6354), Sodium Bromide (Fisher scientific #S255-500), PEG 8000 (Fisher, #BP233-1), and human HDL (Intracel Corp #RP-036).
Both assays measure the transfer of [3H] cholesteryl oleate or [3H] triolein from exogenous LDL to HDL.
Radiolabeled donor particles are generated by first combining 100 μl of 200 μM butylated hydroxyl toluene in CHCl3, 216 μL of 21.57 mM DOPC in EtOH, and either 500 μCi [3H]-triolein (Perkin Elmer #NET-431) or 500 μCi [3H]-cholesteryl oleate (GE #TRK886) in a glass tube. Reagents are mixed, dried under nitrogen, and then resuspended in 2 mL of 50 mM Tris, 27 μM EDTA at pH 7.4. After a brief vortex, the solution is sonicated until clear and mixed with 20 mL of fresh human serum. The mixture is incubated overnight at 37° C. The [3H] labeled LDL substrate is separated at 1.063 g/ml density by sequential ultracentrifugal flotation in NaBr according to the method of Havel, Eder, et al., 1955, and Chapman, Goldstein, et al., 1981. Once isolated the particles are dialyzed 3× in CETP buffer (50 mM Tris, pH 7.4, 100 mM NaCl, 1 mM EDTA). Human HDL is purchased from Intracel and used as the acceptor particles.
Transfer assays are performed in a 96-well v-bottom polypropylene plate. […] 1 μL of each test compound diluted in DMSO is added to 47 μL of assay cocktail per well and incubated at 37° C. for 1 hour. To initiate the transfer reaction, 2 μL radiolabeled LDL is added. After an additional 60 min of incubation at 37° C., the transfer action is terminated by precipitation of LDL with an equal volume of 20% W/V PEG 8000. The plates are centrifuged at 2000 rpm for 30 minutes at 4° C. A 40 μL aliquot of the HDL-containing supernatant is transferred to a Packard Optiplate™ with 200 μL of MicroScint™ 20. After mixing, plates are counted by liquid scintillation. Counts present in the supernatant for blanks (wells containing only HDL acceptor, CETP buffer and DMSO) are subtracted from those containing test compounds and used to correct for non-specific transfer.
For the transfer assay using endogenous CETP from serum (95% RTA), the same procedure is used except that human serum is added such that a final concentration of serum of 95% of the total assay volume is achieved, yielding a concentration of approximately 15 nM endogenous CETP in the assay. This is then combined with HDL and CETP buffer and the reaction proceeds as above and is terminated as described.
Comparison of the counts of samples with inhibitors to an uninhibited (DMSO only) positive control yield a percent inhibition. A plot of percent inhibition vs. log of inhibitor concentration, fit to a Sigmoidal 4 parameter equation is used to calculate IC50.
Starting materials are commercially available or are made using known procedures or as shown below. The examples may be synthesized using the general schemes provided below. The data reported for the examples below were obtained using the RTA assay in 95% human serum. […] When compounds of Formula I are mentioned herein, such compounds include compounds defined generically by Formula I and also the specific examples disclosed herein.
For the compound `COc1ccc(-c2ccc(C(=O)O)cc2C)cc1-c1ccc(C(F)(F)F)cc1[C@@H]1CC[C@H]2[C@@H](c3cc(C(F)(F)F)cc(C(F)(F)F)c3)CC(=O)N12` [Example 2, 2″-((3S,7R,7aS)-7-(3,5-bis(trifluoromethyl)phenyl)-5-oxohexahydro-1H-pyrrolizin-3-yl)-4′-methoxy-2-methyl-4″-(trifluoromethyl)-[1,1′:3′,1″-terphenyl]-4-carboxylic acid], the IC50 was 1830 nM.

Still in this test, the particulars now being: RTA assay in 95% human serum; read-out: IC50.
As for `COc1ncc(-c2c(C)cc(C(=O)O)cc2C)cc1-c1ccc(C(F)(F)F)cc1[C@@H]1CC[C@H]2[C@@H](c3cc(C(F)(F)F)cc(C(F)(F)F)c3)SC(=O)N12` [Example 3, 4-{5-[2-{(1R,5S,7aS)-1-[3,5-bis(trifluoromethyl)phenyl]-3-oxotetrahydro-1H-pyrrolo[1,2-c][1,3]thiazol-5-yl}-4-(trifluoromethyl)phenyl]-6-methoxypyridin-3-yl}-3,5-dimethylbenzoic acid], the IC50 stood at 164 nM.

As for `COc1ncc(-c2ccc(C(=O)O)cc2C)cc1-c1ccc(C(F)(F)F)cc1[C@@H]1CC[C@H]2[C@@H](c3cc(C(F)(F)F)cc(C(F)(F)F)c3)SC(=O)N12` [Example 4, 4-{5-[2-{(1R,5S,7aS)-1-[3,5-bis(trifluoromethyl)phenyl]-3-oxotetrahydro-1H-pyrrolo[1,2-c][1,3]thiazol-5-yl}-4-(trifluoromethyl)phenyl]-6-methoxypyridin-3-yl}-3-methylbenzoic acid], the IC50 was determined as 559 nM.

In the case of `COc1ncc(-c2ccc(C(=O)O)cc2C)cc1-c1ccc(C(F)(F)F)cc1[C@@H]1CC[C@H]2[C@@H](c3cc(F)cc(C(F)(F)F)c3)SC(=O)N12` [Example 5, 4-{5-[2-{(1R,5S,7aS)-1-[3-fluoro-5-(trifluoromethyl)phenyl]-3-oxotetrahydro-1H-pyrrolo[1,2-c][1,3]thiazol-5-yl}-4-(trifluoromethyl)phenyl]-6-methoxypyridin-3-yl}-3-methylbenzoic acid], the IC50 was 285 nM.

Turning to `COc1ccc(-c2ccc(C(=O)O)cc2C)cc1-c1ccc(C(F)(F)F)cc1[C@@H]1CC[C@H]2[C@@H](c3cc(F)cc(C(F)(F)F)c3)SC(=O)N12` [Example 6, 2″-{(1R,5S,7aS)-1-[3-flluoro-5-(trifluoromethyl)phenyl]-3-oxotetrahydro-1H-pyrrolo[1,2-c][1,3]thiazol-5-yl}-4′-methoxy-2-methyl-4″-(trifluoromethyl)-1,1′:3′,1″-terphenyl-4-carboxylic acid], the IC50 came out at 926 nM.

Consider `COc1cc(F)c(C(C)C)cc1-c1ccc(C(F)(F)F)cc1[C@@H]1CC[C@H]2[C@@H](c3cc(F)cc(C(F)(F)F)c3)SC(=O)N12` [Example 7, (1R,5S,7aS)-5-[4′-fluoro-2′-methoxy-5′-(1-methylethyl)-4-(trifluoromethyl)biphenyl-2-yl]-1-[3-fluoro-5-(trifluoromethyl)phenyl]tetrahydro-1H-pyrrolo[1,2-c][1,3]thiazol-3-one], for which the IC50 stood at 2000 nM.

As for `COc1ncc(-c2c(C)cc(C(=O)O)cc2C)cc1-c1ccc(C(F)(F)F)cc1[C@@H]1CC[C@H]2[C@@H](c3ccnc(C(F)(F)F)c3)SC(=O)N12` [Example 8, 4-{6-methoxy-5-[2-{(1R,5S,7aS)-3-oxo-1-[2-(trifluoromethyl)pyridin-4-yl]tetrahydro-1H-pyrrolo[1,2-c][1,3]thiazol-5-yl}-4-(trifluoromethyl)phenyl]pyridin-3-yl}-3,5-dimethylbenzoic acid], the IC50 was found to be 143 nM.

For the compound `COc1ccc(-c2ccc(C(=O)O)cc2C)cc1-c1ccc(C(F)(F)F)cc1[C@@H]1CC[C@H]2[C@@H](c3ccnc(C(F)(F)F)c3)SC(=O)N12` [Example 9, 4′-methoxy-2-methyl-2″-{(1R,5S,7aS)-3-oxo-1-[2-(trifluoromethyl)pyridin-4-yl]tetrahydro-1H-pyrrolo[1,2-c][1,3]thiazol-5-yl}-4″-(trifluoromethyl)-1,1′:3′,1″-terphenyl-4-carboxylic acid], the IC50 was 1990 nM.

In the case of `COc1ncc(-c2ccc(C(=O)O)cc2C)cc1-c1ccc(C(F)(F)F)cc1[C@@H]1CC[C@H]2[C@@H](c3ccnc(C(F)(F)F)c3)SC(=O)N12` [Example 10, 4-{6-methoxy-5-[2-{(1R,5S,7aS)-3-oxo-1-[2-(trifluoromethyl)pyridin-4-yl]tetrahydro-1H-pyrrolo[1,2-c][1,3]thiazol-5-yl}-4-(trifluoromethyl)phenyl]pyridin-3-yl}-3-methylbenzoic acid], the IC50 turned out to be 3940 nM.

Regarding `COc1cc(F)c(C(C)C)cc1-c1ccc(C(F)(F)F)cc1[C@@H]1CC[C@H]2[C@@H](c3ccnc(C(F)(F)F)c3)SC(=O)N12` [Example 11, (1R,5S,7aS)-5-[4′-fluoro-2′-methoxy-5′-(1-methylethyl)-4-(trifluoromethyl)biphenyl-2-yl]-1-[2-(trifluoromethyl)pyridin-4-yl]tetrahydro-1H-pyrrolo[1,2-c][1,3]thiazol-3-one], the IC50 was 2520 nM.

Turning to `COc1ccc([C@H]2CC[C@H](C(=O)O)CC2)cc1-c1ccc(C(F)(F)F)cc1[C@@H]1CC[C@H]2[C@@H](c3cc(F)cc(C(F)(F)F)c3)SC(=O)N12` [Example 12, trans-4-[2′-{(1R,5S,7aS)-1-[3-fluoro-5-(trifluoromethyl)phenyl]-3-oxotetrahydro-1H-pyrrolo[1,2-c][1,3]thiazol-5-yl}-6-methoxy-4′-(trifluoromethyl)biphenyl-3-yl]cyclohexanecarboxylic acid], the IC50 was 1500 nM.

For the compound `COc1ncc(-c2c(C)cc(C(=O)O)cc2C)cc1-c1ccc(C(F)(F)F)cc1[C@@H]1CC[C@H]2[C@@H](c3cc(C(F)(F)F)cc(C(F)(F)F)c3)CC(=O)N12` [Example 14, 4-{5-[2-{(3S,7R,7aS)-7-[3,5-bis(trifluoromethyl)phenyl]-5-oxohexahydro-1H-pyrrolizin-3-yl}-4-(trifluoromethyl)phenyl]-6-methoxypyridin-3-yl}-3,5-dimethylbenzoic acid], the IC50 is 321 nM.

Turning to `COc1ncc(-c2ccc(C(=O)O)cc2C)cc1-c1ccc(C(F)(F)F)cc1[C@@H]1CC[C@H]2[C@@H](c3cc(C(F)(F)F)cc(C(F)(F)F)c3)CC(=O)N12` [Example 16, 4-{5-[2-{(3S,7R,7aS)-7-[3,5-bis(trifluoromethyl)phenyl]-5-oxohexahydro-1H-pyrrolizin-3-yl}-4-(trifluoromethyl)phenyl]-6-methoxypyridin-3-yl}-3-methylbenzoic acid], the IC50 amounted to 2940 nM.

As for `COc1ncc(-c2c(C)cc(C(=O)O)cc2C)cc1-c1ccc(C(F)(F)F)cc1[C@@H]1CC[C@H]2[C@@H](c3cc(F)cc(C(F)(F)F)c3)CC(=O)N12` [Example 17, 4-{5-[2-{(3S,7R,7aS)-7-[3-fluoro-5-(trifluoromethyl)phenyl]-5-oxohexahydro-1H-pyrrolizin-3-yl}-4-(trifluoromethyl)phenyl]-6-methoxypyridin-3-yl}-3,5-dimethylbenzoic acid], the IC50 worked out at 328 nM.

The values are drawn from US20180230166A1 (Merck Sharp & Dohme Corp., priority 2015, published 2018).
